Data set [1] deals with osteoclasts (OCs). Nature of the data set: OC survival assay (number of OCs after 24-hour incubation). Type of data set: cell-based. The following applies: number of OCs as % of DMSO control. The source says:
FIGS. 5A-5H: Inhibition of bone resorption by an inhibitor of Rac1 activation by Dock5. (FIG. 5A) Principle of the yeast exchange assay used to identify inhibitors of Dock5 exchange activity. Wild type Rac1 is fused to LexA DNA binding domain (LexA) and its effector Kinectin (Kin) to GAL4 activation domain (GAD). Expression of Dock5-DHR2 activates Rac1, which binds to kinectin, leading to the expression of his3 and then yeast […] for histidine. Inhibitors of Dock5-DHR2 revert Rac1 activation. (FIG. 5B) Growth curves of yeasts expressing Rac1 and Kinectin with (open triangles) and without (dots) Dock5-DHR2, in medium complemented (plain lines) or not (dotted lines) with histidine. […] (FIG. 5F) Number of OCs (OC) after a 24-hour incubation with the indicated concentrations of C21, expressed as a % of DMSO control (0 μM C21). […]
Preparations were mounted in Mowiol 40-88 (Sigma) and imaged with Zeiss Axioimager Z2 microscope with Coolsnap HQ2 camera for fluorescence and Coolsnap color Cf camera using Zeiss 40× PLAN-NEOFLUAR 1.3 oil DIC or Zeiss 20× PLAN-APOCHROMAT 0.8 or Zeiss 10× EC PLAN-NEOFLUAR 0.3. […] OC circularity was measured using ImageJ. OCs were counted manually in 96-well plates stained to reveal DNA and TRAP activity, except in FIG. 5F where they were counted automatically using a Cellomics Arrayscan VTI (Thermo Scientific). […]

The subject of data set [2] is osteoclasts (OCs). Nature of the data set: Bone resorption assay, CTx concentration in medium of OCs on bovine bone slices. Type of data set: cell-based, mouse. An excerpt:
FIGS. 5A-5H: Inhibition of bone resorption by an inhibitor of Rac1 activation by Dock5. (FIG. 5A) Principle of the yeast exchange assay used to identify inhibitors of Dock5 exchange activity. Wild type Rac1 is fused to LexA DNA binding domain (LexA) and its effector Kinectin (Kin) to GAL4 activation domain (GAD). Expression of Dock5-DHR2 activates Rac1, which binds to kinectin, leading to the expression of his3 and then yeast […] for histidine. Inhibitors of Dock5-DHR2 revert Rac1 activation. (FIG. 5B) Growth curves of yeasts expressing Rac1 and Kinectin with (open triangles) and without (dots) Dock5-DHR2, in medium complemented (plain lines) or not (dotted lines) with histidine. (FIG. 5C) Structure of N-(3,5-dichlorophenyl)benzensulfonamide (C21). (FIG. 5D) Western blots showing total and GTPbound Rac1 (upper panels) and GFP and GFP-fused Dock5-DHR2 in extracts of 293T cells treated for 1 hour with the indicated concentrations of C21 in the presence of 1% DMSO. […] (FIG. 5F) Number of OCs (OC) after a 24-hour incubation with the indicated concentrations of C21, expressed as a % of DMSO control (0 μM C21). […] Well image was reconstituted and resorbed areas were measured using MetaMorph 7.0 software (Molecular Devices). […] After 2 days, CTx concentrations were measured using Crosslap (IDS Nordic Bioscience). […]

Each structure is given as a SMILES string.

The results in this text go back to patent US8940798B2, “Compounds useful for treating and/or preventing disease-associated bone loss” (Centre National de al Recherche Scientifique (CNRS), priority 2011, dated 2015).

Turning to `O=S(=O)(Nc1cc(Cl)cc(Cl)c1)c1ccccc1` [C21, N-(3,5-dichlorophenyl)benzenesulfonamide], in the data set on osteoclasts (OCs) [1], the “Concentrations provoking OC death” value is listed as “above 25 μM”. Besides, in the data set on osteoclasts (OCs) [2] (25 μM C21, OCs on bone), the “Bone resorption, CTx concentration in the culture medium of OCs” value is recorded as “efficiently inhibits”. The “Bone resorption by OCs in vitro, CTx production per OC, dose response” value in the data set with osteoclasts (OCs) [2] (dose response experiment) is “efficiently inhibits bone resorption”.
